Patent US20100113523A1 (priority 2008, published 2010)

Legend:
[1] = Pharmacokinetic analysis in humans (serum and urine, DART TOF-MS); assay type: in vivo; conditions: human, ingested in a mixture
Method: Five healthy consenting female adults ranging in age from 23 to 57 were took diets free of flavonoids and any NSAIDs. A certified individual collected blood samples at several time intervals between 0 and 480 min after compounds of the present invention were ingested in a mixture. Immediately after the time zero blood samples were collected, a single 100 mg dose of the composition was administered as a lozenge. Blood samples were handled with approved protocols and precautions, centrifuged to remove cells and the serum fraction was collected and frozen. Blood was not treated with heparin to avoid any analytical interference. Urine samples were collected from the same five subjects on a time course (0 to 8 h).
The cells were removed from the blood samples by centrifugation and the serum was collected. Serum samples were prepared for DART TOF-MS analysis by extraction with an equal volume of neat ethanol (USP) to minimize background of proteins, peptides, and polysaccharides present in serum. The ethanol extract was centrifuged for 10 min at 4° C., the supernatant was removed, concentrated to 200 μL volume, and 50 μL of an internal standard was added. Urine samples were not treated and used directly for DART TOF-MS. DART TOF-MS analyses were conducted as described above.

tryptase enzyme = molecular target: T1, tryptase enzyme (Homo sapiens, UniProt P20231); experiment: Tryptase inhibition (cleavage of tosyl-gly-pro-lys-pNA, absorbance at 405 nm); assay type: biochemical; conditions: relative to controls; 2 h at 37° C.
T1 construct: purchased Millipore Inc., Westbury, Mass
Method: Tryptase activity was determined by monitoring the production of chromophore p-nitroaniline (pNA) generated by the cleavage of tosyl-gly-pro-lys-pNA by the tryptase enzyme according to the manufacturer's protocol (Millipore Inc., Westbury, Mass.). In a 96-well format, 10 μL of tryptase was added to 10 μL of sample, followed by 20 μL of tosyl-gly-pro-lys-pNA and 160 μL of 1× reaction buffer and incubated for 2 h at 37° C. After the incubation, absorbance at 405 nm was measured in each well using a Tecan M200 microplate reader.

T1 sequence (P20231 31-275): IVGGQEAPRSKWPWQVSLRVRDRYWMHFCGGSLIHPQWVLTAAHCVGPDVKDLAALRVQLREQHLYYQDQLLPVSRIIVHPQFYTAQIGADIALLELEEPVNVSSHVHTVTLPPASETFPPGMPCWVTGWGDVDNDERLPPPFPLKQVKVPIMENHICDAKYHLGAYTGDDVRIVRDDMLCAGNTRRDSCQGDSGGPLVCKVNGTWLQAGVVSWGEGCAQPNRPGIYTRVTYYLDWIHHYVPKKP

| time to appearance in the bloodstream (serum) after ingestion ([1]; single 100 mg lozenge) [min] | time to appearance in urine after ingestion ([1]; single 100 mg lozenge) [h] | time present in the serum post-ingestion ([1]; single 100 mg lozenge, sampling 0 to 480 min) | persistence in the urine post-ingestion ([1]; urine collected 0 to 8 h) | IC50 (tryptase enzyme) [µM] | SMILES |
| --- | --- | --- | --- | --- | --- |
| ≤ 10 | ≤ 1 | up to 480 min | up to 8 h | – | CCCCCC/C=C/CN(c1ccc(C)cc1)c1ccc(S)cn1 [compound (V)] |
| – | – | – | – | 789 | CCCCCC/C=C/CN(c1ccc(C)cc1)c1ccc(SSc2ccc(N(C/C=C/CCCCCC)c3ccc(C)cc3)nc2)cn1 [compound [7]] |
